Test results reported in paper PMC3175016 (Journal of applied toxicology : JAT, 2011).
Marks after values point to notes of the source that are not given here.

Legend:
Assay type in all cases: in vivo
male Fischer 344 rats [1] = test: Serum alanine aminotransferase; conditions: 24 h; for Change in serum ALT levels: vs corn oil; for serum alanine aminotransferase (ALT) activity: 1.0 mmol/kg i.p. in corn oil, corn oil controls 36.0 ± 11.3
male Fischer 344 rats [2] = test: Kidney weight 24 h after a single i.p. dose; conditions: i.p. in corn oil, mean ± SE, N = 3–4
male Fischer 344 rats [3] = test: Kidney histology; conditions: all doses evaluated, i.p., 24 h, vs corn oil
male Fischer 344 rats [4] = test: Blood urea nitrogen; conditions: for Blood urea nitrogen: i.p. in corn oil, 24 h, mean ± SE, N = 3–4
male Fischer 344 rats [5] = test: Liver histology; conditions: 24 h
male Fischer 344 rats [6] = test: Liver weight 24 h after a single i.p. dose; conditions: i.p. in corn oil, mean ± SE, N = 3–4
male Fischer 344 rats [7] = test: Six-hour urine protein content after a single i.p. dose; conditions: i.p. in corn oil, mean ± SE, N = 3–4
male Fischer 344 rats [8] = test: Urine volume after a single i.p. dose; conditions: for Twenty-four-hour urine volume: i.p. in corn oil, mean ± SE, N = 3–4
[9] = all four doses (0.2, 0.4, 0.6, 1.0 mmol/kg) i.p.
[10] = dose 0.2 (head mg/kg; text mmol/kg)
[11] = dose 0.4 (head mg/kg; text mmol/kg)
[12] = dose 0.6 (head mg/kg; text mmol/kg)
[13] = dose 1.0 (head mg/kg; text mmol/kg)
[14] = all doses (0.2–1.0 mmol/kg) i.p.

SMILES | Kidney weight (male Fischer 344 rats [2]; [10]) | Kidney weight (male Fischer 344 rats [2]; [11]) | Kidney weight (male Fischer 344 rats [2]; [12]) | Kidney weight (male Fischer 344 rats [2]; [13]) | Kidney morphology (male Fischer 344 rats [3]) | Blood urea nitrogen (male Fischer 344 rats [4]; [10]) | Blood urea nitrogen (male Fischer 344 rats [4]; [11]) | Blood urea nitrogen (male Fischer 344 rats [4]; [12]) | Blood urea nitrogen (male Fischer 344 rats [4]; [13]) | Liver weight (male Fischer 344 rats [6]; [10]) | Liver weight (male Fischer 344 rats [6]; [11]) | Liver weight (male Fischer 344 rats [6]; [12]) | Liver weight (male Fischer 344 rats [6]; [13]) | Six-hour urine protein content (male Fischer 344 rats [7]; [10]) | Six-hour urine protein content (male Fischer 344 rats [7]; [11]) | Six-hour urine protein content (male Fischer 344 rats [7]; [12]) | Six-hour urine protein content (male Fischer 344 rats [7]; [13]) | Twenty-four-hour urine volume (male Fischer 344 rats [8]; [10]) | Twenty-four-hour urine volume (male Fischer 344 rats [8]; [11]) | Twenty-four-hour urine volume (male Fischer 344 rats [8]; [12]) | other results
O=C1SCCN1c1cc(Cl)cc(Cl)c1 [2-DCTD, 3-(3,5-dichlorophenyl)-2-thiazolidinone] | 0.39 ± 0.01^e g/ 100% BW | 0.38 ± 0.01^e g/ 100% BW | 0.40 ± 0.01^e g/ 100% BW | 0.37 ± 0.01^e g/ 100% BW | did not produce any noticeable changes in the kidney morphology | 23.0 ± 1.2^g mg/dl | 22.3 ± 1.1^g mg/dl | 23.9 ± 0.9^g mg/dl | 24.4 ± 0.7^g mg/dl | 3.96 ± 0.10^d g/100% BW | 3.71 ± 0.11^d g/100% BW | 3.74 ± 0.11^d g/100% BW | 3.85 ± 0.15^d g/100% BW | 1.6 ± 0.4^d mg | 1.8 ± 0.1^d mg | 2.2 ± 0.1^d mg | 2.0 ± 0.1^d mg | 6.0 ± 0.8^d ml | 4.3 ± 0.3^d ml | 5.0 ± 0.7^d ml | Change in serum ALT levels (male Fischer 344 rats [1]; [9]): did not exhibit any significant changes in serum ALT levels; Liver morphology (male Fischer 344 rats [5]; [14]): generally normal, although some nuclear condensation was evident; Twenty-four-hour urine volume (male Fischer 344 rats [8]; [13]): 4.4 ± 1.3^d ml
O=C1CSCN1c1cc(Cl)cc(Cl)c1 [4-DCTD, 3-(3,5-dichlorophenyl)-4-thiazolidinone] | 0.40 ± 0.01^d g/ 100% BW | 0.37 ± 0.01^d g/ 100% BW | 0.41 ± 0.01^d g/ 100% BW | 0.42 ± 0.01^d g/ 100% BW | Minor swelling in the proximal tubular cells and slight dilation of collecting tubules | 26.8 ± 1.5^d mg/dl | 25.6 ± 1.9^d mg/dl | 33.8 ± 2.4*,^e mg/dl | 42.5 ± 1.1*,^f mg/dl | 3.74 ± 0.23^c g/100% BW | 3.96 ± 0.18^c g/100% BW | 3.46 ± 0.09^c g/100% BW | 3.81 ± 0.15^c g/100% BW | 1.8 ± 0.3^c mg | 1.6 ± 0.2^c mg | 1.9 ± 0.4^c mg | 2.8 ± 0.3^c mg | 12.3 ± 1.7*,^c ml | 11.3 ± 2.2*,^c ml | 9.1 ± 1.6*,^c ml | Change in serum ALT levels (male Fischer 344 rats [1]; [9]): did not exhibit any significant changes in serum ALT levels; Liver morphology (male Fischer 344 rats [5]; [14]): no changes in hepatic morphology; Diuresis / increase in urine volume (male Fischer 344 rats [8]; all doses, compared to controls, not dose-dependent): approximately three and a half-fold increase; Twenty-four-hour urine volume (male Fischer 344 rats [8]; [13]): 12.3 ± 1.0*,^c ml
O=C1CSC(=O)N1c1ccc(Cl)cc1 [CPTD, 3-(4-chlorophenyl)-2,4-thiazolidinedione] | 0.39 ± 0.02^b g/ 100% BW | 0.41 ± 0.01^b g/ 100% BW | 0.46 ± 0.02*,^c g/ 100% BW | 0.51 ± 0.04*,^c g/ 100% BW | minor swelling in some proximal tubular cells | 37.9 ± 0.6*,^c mg/dl | 38.1 ± 1.7*,^c mg/dl | 40.4 ± 2.7*,^c mg/dl | 34.9 ± 1.8*,^c mg/dl | 3.62 ± 0.16^c g/100% BW | 3.84 ± 0.07^c g/100% BW | 4.36 ± 0.06*,^d g/100% BW | 3.98 ± 0.14*,^c g/100% BW | 2.0 ± 0.1^c mg | 1.9 ± 0.1^c mg | 2.0 ± 0.1^c mg | 1.9 ± 0.1^c mg | 5.7 ± 1.5^b ml | 12.4 ± 4.6*,^c ml | 16.6 ± 0.8*,^c ml | serum alanine aminotransferase (ALT) activity (male Fischer 344 rats [1]): 1622.5 ± 218.5 Sigma-Frankel units/ml; Change in serum ALT levels (male Fischer 344 rats [1]; [9]): significantly elevated; Increase in BUN levels (male Fischer 344 rats [4]; all dosages, compared to corn oil controls): 1.8 fold; Liver morphology (male Fischer 344 rats [5]; 1.0 mmol/kg i.p.): signs of liquefactive necrosis; Liver morphology (male Fischer 344 rats [5]; [14]): necrotic lesions with acute inflammatory response; Twenty-four-hour urine volume (male Fischer 344 rats [8]; [13]): 15.3 ± 2.7*,^c ml
O=C1CSC(=O)N1c1cc(C(F)(F)F)cc(C(F)(F)F)c1 [DFMPT, 3-[3,5-bis(trifluoromethyl)phenyl]-2,4-thiazolidinedione] | 0.40 ± 0.01^g g/ 100% BW | 0.42 ± 0.03^g g/ 100% BW | 0.30 ± 0.09^g g/ 100% BW | 0.48 ± 0.01*,^h g/ 100% BW | minor swelling in some proximal tubular cells | 19.6 ± 0.5^e mg/dl | 21.7 ± 0.4^e mg/dl | 22.5 ± 0.5^e mg/dl | 32.7 ± 1.4*,^f mg/dl | 3.82 ± 0.12^f g/100% BW | 3.59 ± 0.10^f g/100% BW | 3.78 ± 0.07^f g/100% BW | 4.05 ± 0.15*,^f g/100% BW | 1.1 ± 0.3^e mg | 1.6 ± 0.2^e mg | 1.5 ± 0.2^e mg | 1.0 ± 0.2^e mg | 10.1 ± 1.3*,^f ml | 14.1 ± 2.6*,^f,^g ml | 20.0 ± 3.1*,^g,^h ml | Change in serum ALT levels (male Fischer 344 rats [1]; [9]): normal; Liver morphology (male Fischer 344 rats [5]; [14]): did not show any noticeable changes in morphology; Twenty-four-hour urine volume (male Fischer 344 rats [8]; [13]): 23.5 ± 1.8*,^h ml
Cc1cc(C)cc(N2C(=O)CSC2=O)c1 [DMPT, 3-(3,5-dimethylphenyl)-2,4-thiazolidinedione] | 0.38 ± 0.01^a g/ 100% BW | 0.40 ± 0.02^a g/ 100% BW | 0.39 ± 0.00^a g/ 100% BW | 0.38 ± 0.01^a g/ 100% BW | normal | 18.1 ± 1.3^a mg/dl | 22.2 ± 0.4^a mg/dl | 27.5 ± 1.4*,^b mg/dl | 32.8 ± 3.1*,^b mg/dl | 3.47 ± 0.20^a g/100% BW | 4.10 ± 0.20*,^b g/100% BW | 4.20 ± 0.05*,^b g/100% BW | 3.97 ± 0.04*,^b g/100% BW | 0.8 ± 0.3^a mg | 1.4 ± 0.1^a mg | 1.9 ± 0.2^a mg | 2.8 ± 0.4*,^b mg | 5.8 ± 1.4*,^a ml | 9.9 ± 2.2*,^a ml | 8.9 ± 1.8*,^a ml | serum alanine aminotransferase (ALT) activity (male Fischer 344 rats [1]): 2071.9 ± 217.8 Sigma-Frankel units/ml; Change in serum ALT levels (male Fischer 344 rats [1]; all doses except the lowest (0.4, 0.6, 1.0 mmol/kg) i.p.): marked increases in serum ALT levels; Liver morphology (male Fischer 344 rats [5]; 0.2 and 0.4 mmol/kg i.p.): necrotic lesions with infiltration of inflammatory cells, neutrophils and lymphocytes; Liver morphology (male Fischer 344 rats [5]; 0.6 and 1.0 mmol/kg i.p.): necrotic lesions were widespread with many inflammatory cells seen around the lesions; Twenty-four-hour urine volume (male Fischer 344 rats [8]; [13]): 11.3 ± 2.5*,^a ml
